Among the data in patent US20180282281A1, “IMMUNOREGULATORY AGENTS” (FLEXUS BIOSCIENCES, INC., priority 2014, published 2018) are IC50 values, retold here.

Each structure is given as a SMILES string.

The target in this experiment is T1, human IDO1 (Homo sapiens, UniProt P14902).
T1 construct: expressed in transfected cells
T1 sequence (P14902 whole entry): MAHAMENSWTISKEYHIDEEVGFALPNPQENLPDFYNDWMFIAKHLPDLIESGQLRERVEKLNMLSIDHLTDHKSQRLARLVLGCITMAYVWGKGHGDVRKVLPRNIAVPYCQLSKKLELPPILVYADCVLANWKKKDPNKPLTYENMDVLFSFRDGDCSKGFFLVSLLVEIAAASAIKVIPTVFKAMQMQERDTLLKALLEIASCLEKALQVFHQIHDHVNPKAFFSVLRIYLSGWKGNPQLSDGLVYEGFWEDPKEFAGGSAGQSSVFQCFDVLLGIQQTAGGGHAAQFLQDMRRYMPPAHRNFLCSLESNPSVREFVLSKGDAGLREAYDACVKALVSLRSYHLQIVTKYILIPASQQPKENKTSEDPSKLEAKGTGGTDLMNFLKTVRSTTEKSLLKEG
In words: HEK293 human IDO1 cell-based IDO inhibition assay. Particulars: read-out: HEK Human IDO-1 Potency. As for the experimental part:
1HEK293 cells were transfected with a pCDNA-based mammalian expression vector harboring human IDO1 cDNA (NM 002164.2) by electroporation. They were cultured in medium (DMEM with 10% FBS) containing 1 mg/ml G418 for two weeks. Clones of HEK293 cells that stably expressed human IDO1 protein were selected and expanded for IDO inhibition assay.
The human IDOL/HEK293 cells were seeded at 10,000 cells per 50 μL per well with RPMI/phenol red free media contains 10% FBS in a 384-well black wall clear bottom tissue culture plate (Matrix Technologies LLC) 100 nL of certain concentration of compound was then added to each well using ECHO liquid handling systems. The cells were incubated for 20 hours in 37° C. incubator with 5% CO2.
The compound treatments were stopped by adding Trichloroacetic Acid (Sigma-Aldrich) to a final concentration at 0.2%. The cell plate was further incubated at 50° C. for 30 minute. The equal volume supernatant (20 μL) and 0.2% (w/v) Ehrlich reagent (4-dimethylaminobenzaldehyde, Sigma-Aldrich) in glacial acetic acid were mixed in a new clear bottom 384-well plate. This plate was then incubated at room temperature for 30 minute. The absorbance at 490 nm was measured on Envision plate reader.
In the case of `CC(C(=O)O)c1ccc(C[C@@H](C(=O)Nc2ccc(Cl)cc2)[C@H]2CC[C@@H](c3ccnc4ccc(F)cc43)CC2)cc1` (mixture of isomers) [Example 137, 2-(4-((R)-3-((4-Chlorophenyl)amino)-2-((cis)-4-(6-fluoroquinolin-4-yl)cyclohexyl)-3-oxopropyl)phenyl)propanoic Acid], the IC50 was below 50 nM. Under `CCC(C(=O)Nc1ccc(Cl)cc1)C1CCC(c2ccnc3ccc(F)cc23)CC1` (mixture of isomers) [Example 154, N-(4-Chlorophenyl)-2-(4-(6-fluoroquinolin-4-yl)cyclohexyl)butanamide] stands below 50 nM; under `CCC(C(=O)Nc1ccc(Cl)cc1)[C@H]1CC[C@H](Oc2ccnc3cc(C(F)(F)F)ccc23)CC1` (mixture of isomers) [Example 83, (±)—N-(4-Chlorophenyl)-2-((trans)-4-((7-(trifluoromethyl)quinolin-4-yl)oxy)cyclohexyl)butanamide], below 250 nM.

On to `CCC(C(=O)Nc1ccc(Cl)cc1)[C@H]1CC[C@H](Oc2cc(C(F)(F)F)nc3ccccc23)CC1` (mixture of isomers) [Example 84, (±)—N-(4-Chlorophenyl)-2-((trans)-4-((2-(trifluoromethyl)quinolin-4-yl)oxy)cyclohexyl)butanamide], for which the IC50 was above 250 nM. Under `CCC(C(=O)Nc1ccc(Cl)cc1)[C@H]1CC[C@H](Oc2ccnc3ccccc23)CC1` (mixture of isomers) [Example 85, (±)—N-(4-Chlorophenyl)-2-((trans)-4-(quinolin-4-yloxy)cyclohexyl)butanamide] stands below 50 nM; under `CCC(C(=O)Nc1ccc(Cl)cc1)[C@H]1CC[C@@H](Oc2cc(C(F)(F)F)nc3ccccc23)CC1` (mixture of isomers) [Example 88, (±)—N-(4-Chlorophenyl)-2-((cis)-4-((2-(trifluoromethyl)quinolin-4-yl)oxy)cyclohexyl)butanamide], below 50 nM; under `CCC(C(=O)Nc1ccc(Cl)cc1)[C@H]1CC[C@@H](Oc2ccnc3ccc(C(F)(F)F)cc23)CC1` (mixture of isomers) [Example 89, (±)—N-(4-Chlorophenyl)-2-((cis)-4-((6-(trifluoromethyl)quinolin-4-yl)oxy)cyclohexyl)butanamide], above 250 nM. Under `Cc1ccc(NC(=O)C(C)N2CCC(Oc3ccc4nccc(Cl)c4c3)CC2)cc1` (racemic) [Example 92, (±)-2-(4-((4-Chloroquinolin-6-yl)oxy)piperidin-1-yl)-N-(p-tolyl)propanamide] stands above 250 nM.

On to `CC(C(=O)Nc1ccc(Cl)cc1)N1CCC(Oc2ccnc3ccc(F)cc23)CC1` (racemic) [Example 96, (±)—N-(4-Chlorophenyl)-2-(4-((6-fluoroquinolin-4-yl)oxy)piperidin-1-yl)propanamide], for which the IC50 is below 50 nM. Consider `CC(C)C(C(=O)Nc1ccc(Cl)cc1)N1CCC(Oc2ccnc3ccc(F)cc23)CC1` (racemic) [Example 102, (±)—N-(4-Chlorophenyl)-2-(4-((6-fluoroquinolin-4-yl)oxy)piperidin-1-yl)-3-methylbutanamide], for which the IC50 was above 250 nM. As to `CC(C(=O)Nc1ccc(Cl)cc1)N1CCN(c2ccnc3ccc(F)cc23)CC1` (racemic) [Example 126, (±)—N-(4-Chlorophenyl)-2-(4-(6-fluoroquinolin-4-yl)piperazin-1-yl)propanamide], the IC50 is above 250 nM. To `CC(C(=O)Nc1ccc(Br)cc1)N1CCN(c2ccnc3ccc(F)cc23)CC1` (racemic) [Example 127, (±)—N-(4-Bromophenyl)-2-(4-(6-fluoroquinolin-4-yl)piperazin-1-yl)propanamide] belongs above 250 nM; to `CC(C(=O)Nc1ccccc1)N1CCN(c2ccnc3ccc(F)cc23)CC1` (racemic) [Example 128, (±)-2-(4-(6-Fluoroquinolin-4-yl)piperazin-1-yl)-N-phenylpropanamide], above 250 nM; to `CCC(C(=O)Nc1ccc(Cl)cc1)N1CCN(c2ccnc3ccc(F)cc23)CC1` (racemic) [Example 131, (±)—N-(4-Chlorophenyl)-2-(4-(6-fluoroquinolin-4-yl)piperazin-1-yl)butanamide], below 50 nM. Under `CCC(C(=O)Nc1ccccc1)N1CCN(c2ccnc3ccc(F)cc23)CC1` (racemic) [Example 132, (±)-2-(4-(6-Fluoroquinolin-4-yl)piperazin-1-yl)-N-phenylbutanamide] stands above 250 nM. Under `COCC(C(=O)Nc1ccc(Cl)cc1)N1CCN(c2ccnc3ccc(F)cc23)CC1` (racemic) [Example 133, (±)—N-(4-Chlorophenyl)-2-(4-(6-fluoroquinolin-4-yl)piperazin-1-yl)-3-methoxypropanamide] stands above 250 nM; under `COCC(C(=O)Nc1ccc(F)cc1)N1CCN(c2ccnc3ccc(F)cc23)CC1` (racemic) [Example 134, (±)—N-(4-Fluorophenyl)-2-(4-(6-fluoroquinolin-4-yl)piperazin-1-yl)-3-methoxypropanamide], below 250 nM; under `CC(C(=O)Nc1ccc(Cl)cc1)C1CCC(c2ccnc3ccnn23)CC1` (racemic) [Example 143, (±)—N-(4-chlorophenyl)-2-(cis- and trans-4-(pyrazolo[1,5-a]pyrimidin-7-yl)cyclohexyl)propanamide], below 250 nM.

For `CC(C(=O)Nc1ccc(Cl)cc1)C1CCC(c2ccnc3ncccc23)CC1` (racemic) [Example 147, (±)-2-(Cis- and trans-4-(1,8-naphthyridin-4-yl)cyclohexyl)-N-(4-chlorophenyl)propanamide], the IC50 is below 50 nM. In the case of `CC(C(=O)Nc1ccc(Cl)cc1)C1CCC(c2ccnc3cn[nH]c23)CC1` (racemic) [Example 149, (±)-2-(Cis- and trans-4-(1H-pyrazolo[4,3-b]pyridin-7-yl)cyclohexyl)-N-(4-chlorophenyl)propanamide], the IC50 is below 50 nM. For the compound `CC(C(=O)Nc1ccc(Cl)cc1)[C@H]1CC[C@H](Oc2ccnc3ncccc23)CC1` (mixture of isomers) [Example 153, (±)-2-((trans)-4-((1,8-Naphthyridin-4-yl)oxy)cyclohexyl)-N-(4-chlorophenyl)propanamide], the IC50 is below 50 nM. Under `CC(C(=O)Nc1ccc(Cl)cc1)[C@]1(F)CC[C@H](c2ccnc3ccc(F)cc32)CC1` (mixture of isomers) [Example 233, (+/−)—N-(4-chlorophenyl)-2-(trans-1-fluoro-4-(6-fluoroquinolin-4-yl)cyclohexyl) propanamide] stands below 50 nM; under `CCC(C(=O)Nc1ccc(Cl)cc1)C1CCN(c2ccnc3ccc(F)cc23)CC1` (racemic) [Example 243, (±)—N-(4-Chlorophenyl)-2-(1-(6-fluoroquinolin-4-yl)piperidin-4-yl)butanamide], above 250 nM. Under `CCCC(C(=O)Nc1ccc(Cl)cc1)N1CCN(c2ccnc3ccc(F)cc23)CC1` (racemic) [Example 244, (±)—N-(4-Chlorophenyl)-2-(4-(6-fluoroquinolin-4-yl)piperazin-1-yl)pentanamide] stands below 250 nM; under `CCCC(C(=O)NC1(C)CCCCC1)N1CCN(c2ccnc3ccc(F)cc23)CC1` (racemic) [Example 247, (±)-2-(4-(6-Fluoroquinolin-4-yl)piperazin-1-yl)-N-(1-methylcyclohexyl)pentanamide], above 250 nM; under `CCC(C(=O)Nc1ccc(Cl)cc1)[C@H]1CC[C@H](Oc2ccnc3cc(C(F)(F)F)ccc23)CC1` (single isomer, unassigned) [Example 83a, N-(4-Chlorophenyl)-2-((trans)-4-((7-(trifluoromethyl)quinolin-4-yl)oxy)cyclohexyl)-2-butanamide], above 250 nM.

As for `CCC(C(=O)Nc1ccc(Cl)cc1)[C@H]1CC[C@H](Oc2ccnc3cc(C(F)(F)F)ccc23)CC1` (single isomer, unassigned) [Example 83b, N-(4-Chlorophenyl)-2-((trans)-4-((7-(trifluoromethyl)quinolin-4-yl)oxy)cyclohexyl)-2-butanamide], the IC50 is below 250 nM. Under `CC(C(=O)O)c1ccc(C[C@@H](C(=O)Nc2ccc(Cl)cc2)[C@H]2CC[C@@H](c3ccnc4ccccc43)CC2)cc1` (single isomer, unassigned) [Example 87a] stands below 50 nM; under `CCC(C(=O)Nc1ccc(Cl)cc1)[C@H]1CC[C@@H](Oc2cc(C(F)(F)F)nc3ccccc23)CC1` (single isomer, unassigned) [Example 88a, N-(4-Chlorophenyl)-2-((cis)-4-((2-(trifluoromethyl)quinolin-4-yl)oxy)cyclohexyl)butanamide], below 50 nM; under `CCC(C(=O)Nc1ccc(Cl)cc1)[C@H]1CC[C@@H](Oc2cc(C(F)(F)F)nc3ccccc23)CC1` (single isomer, unassigned) [Example 88b, N-(4-Chlorophenyl)-2-((cis)-4-((2-(trifluoromethyl)quinolin-4-yl)oxy)cyclohexyl)butanamide], below 250 nM.

On to `CCC(C(=O)Nc1ccc(Cl)cc1)[C@H]1CC[C@@H](Oc2ccnc3ccc(C(F)(F)F)cc23)CC1` (single isomer, unassigned) [Example 89a, N-(4-Chlorophenyl)-2-((cis)-4-((6-(trifluoromethyl)quinolin-4-yl)oxy)cyclohexyl)butanamide], for which the IC50 was below 250 nM.
